Tests used:
[1] = tested on: human non-small cell lung adenocarcinoma cell line H2087-polypeptide FILDGLYSV; experiment: DC polypeptide vaccine in subcutaneous tumor-modeled NOD/SCID mice; assay type: in vivo; conditions: DCs loaded with the polypeptide, intracutaneous, 2 injections; vs DCs loaded with wild-type polypeptide
Protocol: (§1) After isolated with Ficoll solution from 600 to 900 ml anticoagulant peripheral blood from a healthy volunteer, the collected PBMCs in a concentration of 2×10^7 cells/0.5 ml were intraperitoneally injected into each of 300 NOD SCID mice without immune leakage, so as to reconstruct a human immune system in the NOD SCID mice, with the mice after 4 weeks selected for subsequent inoculation of the human non-small cell lung adenocarcinoma cell line H2087-polypeptide […] obtained in 6.2.
(§2) The human non-small cell lung adenocarcinoma cell line H2087-polypeptide […] (SEQ ID NO:1) obtained in 6.2 was incubated in DMEM medium containing 10% fetal calf serum, 100 U/mL penicillin and 100 U/mL streptomycin in an incubator under 37° C. and 5% CO2, and then the cells were centrifuged at 3000 rpm for collection. The collected cells were washed with sterile physiological saline three times, and then diluted appropriately. To 40 μl tumor cell suspension, 10 μl 0.4% […] was added for staining, subsequently the tumor cell suspension in a concentration of 1×10^8 cells/ml was prepared after counting under microscope. 100 μl of the tumor cell suspension was inoculated into each of the NOD/SCID mice by subcutaneous injection at 4 weeks post immune reconstruction in 6.3, with daily observation of the presence/absence of infection at inoculation sites, the increase/decrease of tumor size (in the case of presence of a tumor), and measurement of the major axis (a) and the minor axis (b) of a tumor by a vernier caliper every 2 or 3 days (where the tumor size=a×b×b/2). After 7 days from inoculation, a tumor in a size of rice grain was touchable at the inoculation site. After that, the subcutaneous tumor-modeled NOD/SCID mice (modeled with H2087-polypeptide […] (SEQ ID NO:1)) were treated with a polypeptide+complete Freund's adjuvant vaccine, a polypeptide+DCs vaccine, a lentivirus-infected DCs vaccine and a DC-CTL vaccine respectively, with the tumor size and mouse survival rate observed and recorded every 2 days.
Peripheral blood mononuclear cells (PBMCs) in 100 to 150 mL anticoagulant peripheral blood obtained from a healthy volunteer were isolated with Ficoll solution. The collected PBMCs suspended in the RPMI 1640 medium in a concentration of 2×10^6-3×10^6 cells/ml were incubated at 37° C. for 2 hours, obtaining adherent monocytes which can be induced into DCs, and non-adherent peripheral blood lymphocytes (PBLs) for use.
The subcutaneous tumor-modeled NOD/SCID mice obtained in 6.4 of the example were randomly divided into seven groups as below, with 6 mice per group.
For each of the above seven groups, DCs (respectively loaded with the wild-type polypeptide, the mutant polypeptide or each of five mutant polypeptide's variants) were washed with physiological saline three times and then diluted with the physiological saline to a concentration of (4.0±0.5)×10^7 cells/ml, and 0.1 ml of the resulting diluent (in a dosage of (4.0±0.5)×10^6 cells) was administrated to each inner thigh close to the inguen of each mouse by intracutaneous injection, at one week interval for 2 injections in total. The vital signs of the mice were observed after administration, and the major axis (a) and the minor axis (b) of a tumor were measured by a vernier caliper every 2 days for calculation of tumor size according to a formula of a×b×b/2, with the weight change and survival rate observed and recorded.

[2] = tested on: CD8^+ T cells; experiment: IFN-γ ELISPOT of CD8+ T cell immune response activated by polypeptide; assay type: cell-based, human; conditions: for Conclusion (immunogenicity): ELISPOT spot ratio >2 criterion; for Number of spots produced by mutant polypeptide or each of its variants / Number of spots produced by wild-type polypeptide: IFN-γ ELISPOT, T cells activated by the listed polypeptide; for Number of spots produced by mutant polypeptide or each of its variants: T2 cells loaded with mutant polypeptide; for Number of spots produced by wild-type polypeptide: T2 cells loaded with wild-type polypeptide FILDGSYSV; for Ratio of mutant polypeptide to wild-type polypeptide: spot number ratio, >2 indicates immunogenicity
Text: The mutant polypeptide with immunogenicity should meet the following requirement:
Spots number of mutant polypeptide/spots number of wild-type polypeptide>2,
After specifically recognizing the complex of HLA-A0201 and the mutant polypeptide, the polypeptide specific-CD8^+T cell is activated and secretes IFN-γ, which will be captured by the firstly antibody coated on the ELISPOT plate and further be bound by an enzyme-coupled secondly antibody, and finally developed by addition of a substrate which can be catalyzed by the enzyme, thus forming colored spots. The number of spots produced represents the number of the IFN-γ secreted by the activated CD8^+T cell.

[3] = tested on: CD8^+ T cells; experiment: In vitro stimulation of CD8+ T cells by polypeptide-loaded mature DCs, cell counting; assay type: cell-based, human; conditions: CD8+ T cells with polypeptide-specific mature DCs, day 10; 2.5 × 10^6 cells before incubation
Protocol: Peripheral blood mononuclear cells (PBMCs) in 100 mL peripheral blood obtained from a HLA-A0201-positive healthy volunteer were isolated using the Ficoll solution, where CD8^+ T cells among the PBMCs were isolated with CD8 magnetic beads, and monocytes among the PBMCs were incubated by an adherence method.
The CD8^+ T cells from the volunteer in a well were incubated with the mature DCs obtained, along with IL-21, with addition of IL-2 and IL-7 after 3 days' culture and addition IL-2 and IL-7 again at day 5 and day 7 respectively, after which the collected mixture of cells were counted on day 10, for use in the next enzyme-linked immune-spot assay (ELISPOT) and lactate dehydrogenase (LDH) assay.

[4] = tested on: human non-small cell lung adenocarcinoma cell line H2087-polypeptide FILDGLYSV; experiment: Lentivirus-infected DCs vaccine in subcutaneous tumor-modeled NOD/SCID mice; assay type: in vivo; conditions: DCs infected with lentivirus expressing the polypeptide, intracutaneous, 2 injections; vs wild-type lentivirus DCs
Protocol: as §1, §2
Peripheral blood mononuclear cells (PBMCs) in 100 to 150 mL anticoagulant peripheral blood obtained from a healthy volunteer were isolated with Ficoll solution. After the collected PBMCs were incubated at 37° C. for 2 hours and the non-adherent PBLs were removed, the adherent monocytes were cultured in the presence of recombinant human granulocyte macrophage colony stimulating factor (rhGM-CSF) and recombinant human interleukin-4 (rhIL-4). […] After 24 hours' incubation, the collected cells with lentivirus-containing medium removed were again incubated in a fresh medium containing 50 ng/ml rhIL-4, 100 ng/ml rh GM-CSF, 100 U/ml IFN-γ and 100 U/ml CD40L in an incubator under 37° C. and 5% CO2 for 48 to 72 hours, so as to induce mature DCs, and then the DCs infected with lentivirus were observed under the fluorescence microscope. The collected mature DCs were washed with physiological saline three times and diluted with the physiological saline to a concentration of (4.0±0.5)×10^7 cells/ml for use. The subcutaneous tumor-modeled NOD/SCID mice obtained in 6.4 of the example 6 were randomly divided into seven groups as below, with 6 mice per group.
The vital signs of the mice were observed after administration, and the major axis (a) and the minor axis (b) of a tumor were measured by a vernier caliper every 2 days for calculation of tumor size according to a formula of a×b×b/2, with the weight change and survival rate observed and recorded.

| Sequence | Mouse survival period [1] | Tumor growth [1] | Conclusion (immunogenicity) [2] | Number of spots produced by mutant polypeptide or each of its variants [2] | Number of spots produced by wild-type polypeptide [2] | Ratio of mutant polypeptide to wild-type polypeptide [2] | Total number of cells in the well after incubation [3] | Mouse survival period [4] | Tumor growth [4] |
| --- | --- | --- | --- | --- | --- | --- | --- | --- | --- |
| FMLDGLYSL | prolonging the mouse survival period | mitigating tumor growth significantly | immunogenic | 319 | 35 | 9.11 | 1.66 × 10^7 | prolonging mouse survival period effectively | inhibiting tumor growth |
| FILDGLYSL [mutant polypeptide's variant, Leucine at position 9] | prolonging the mouse survival period | mitigating tumor growth significantly | immunogenic | 313 | 37 | 8.46 | 1.35 × 10^7 | prolonging mouse survival period effectively | inhibiting tumor growth |
| FMLDGLYSV | prolonging the mouse survival period | mitigating tumor growth significantly | immunogenic | 335 | 50 | 6.7 | 1.71 × 10^7 | prolonging mouse survival period effectively | inhibiting tumor growth |
| FLLDGLYSL [mutant polypeptide's variant, Leucine at positions 2 and 9] | prolonging the mouse survival period | mitigating tumor growth significantly | immunogenic | 279 | 24 | 11.62 | 1.03 × 10^7 | prolonging mouse survival period effectively | inhibiting tumor growth |
| FILDGLYSV [mutant polypeptide from COL21A1, Serine at position 45 mutated into Leucine] | prolonging the mouse survival period | mitigating tumor growth significantly | immunogenic | 296 | 29 | 10.2 | 1.22 × 10^7 | prolonging mouse survival period effectively | inhibiting tumor growth |
| FLLDGLYSV [mutant polypeptide's variant, Leucine at position 2] | prolonging the mouse survival period | mitigating tumor growth significantly | immunogenic | 301 | 42 | 7.17 | 1.42 × 10^7 | prolonging mouse survival period effectively | inhibiting tumor growth |
